Test results reported in ChEMBL document CHEMBL5131476, “Development of dihydropyrrolopyridinone-based PKN2/PRK2 chemical tools to enable drug discovery” (Bioorg Med Chem Lett, 2022).

Experiments:
[1] = biological target: T1, Serine/threonine-protein kinase N1 (Homo sapiens, UniProt Q16512); experiment: Inhibition of PKN1 (unknown origin) by TR-FRET-based tracer displacement assay dependent Cheng-Prusoff equation analysis
[2] = biological target: T1, Serine/threonine-protein kinase N1; experiment: Inhibition of PKN1 (unknown origin) by TR-FRET-based tracer displacement assay
[3] = Toxicity in human HeLa cells assessed as cell viability at 50 uM incubated for 24 hrs by MTT assay; type: cell-based; conditions: read-out: Activity
[4] = biological target: T2, Serine/threonine-protein kinase N2 (Homo sapiens, UniProt Q16513); experiment: Inhibition of PKN2 (unknown origin) by TR-FRET-based tracer displacement assay dependent Cheng-Prusoff equation analysis
T2 sequence (Q16513 whole entry): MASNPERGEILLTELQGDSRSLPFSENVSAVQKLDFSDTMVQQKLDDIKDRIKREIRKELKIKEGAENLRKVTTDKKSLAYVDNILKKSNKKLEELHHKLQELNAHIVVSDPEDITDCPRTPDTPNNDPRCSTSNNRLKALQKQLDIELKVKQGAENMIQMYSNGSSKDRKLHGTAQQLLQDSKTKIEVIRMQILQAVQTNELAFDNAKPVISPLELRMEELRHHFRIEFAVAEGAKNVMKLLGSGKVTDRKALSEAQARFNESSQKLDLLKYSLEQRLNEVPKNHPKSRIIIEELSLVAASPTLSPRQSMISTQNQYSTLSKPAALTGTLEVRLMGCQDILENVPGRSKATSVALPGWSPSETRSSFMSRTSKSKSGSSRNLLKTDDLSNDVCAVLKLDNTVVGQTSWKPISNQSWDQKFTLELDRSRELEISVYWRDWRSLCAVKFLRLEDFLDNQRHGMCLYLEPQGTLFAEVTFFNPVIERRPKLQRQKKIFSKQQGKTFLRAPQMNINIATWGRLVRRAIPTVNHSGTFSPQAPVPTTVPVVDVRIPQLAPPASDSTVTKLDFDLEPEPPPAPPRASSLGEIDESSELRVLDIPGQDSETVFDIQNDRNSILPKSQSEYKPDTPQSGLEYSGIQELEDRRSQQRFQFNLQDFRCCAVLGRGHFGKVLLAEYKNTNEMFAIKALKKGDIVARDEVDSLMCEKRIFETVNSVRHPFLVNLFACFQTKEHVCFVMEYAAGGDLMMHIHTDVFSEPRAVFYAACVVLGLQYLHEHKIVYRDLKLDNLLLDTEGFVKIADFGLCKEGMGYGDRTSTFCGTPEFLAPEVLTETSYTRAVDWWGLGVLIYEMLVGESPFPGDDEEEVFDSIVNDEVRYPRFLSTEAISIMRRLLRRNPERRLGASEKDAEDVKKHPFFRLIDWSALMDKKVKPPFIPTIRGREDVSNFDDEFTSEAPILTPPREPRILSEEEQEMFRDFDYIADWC

[5] = biological target: T2, Serine/threonine-protein kinase N2; experiment: Inhibition of PKN2 (unknown origin) by TR-FRET-based tracer displacement assay
[6] = biological target: T2, Serine/threonine-protein kinase N2; experiment: Inhibition of NanoLuc-PKN2 (ser646-cys984)(unknown origin) expressed in HEK293 cells by cell-based NanoBRET target engagement assay
[7] = biological target: T2, Serine/threonine-protein kinase N2; experiment: Inhibition of NanoLuc-PKN2 (ser646-cys984)(unknown origin) expressed in HEK293 cells in […] by cell-based NanoBRET target engagement assay

T1 sequence (Q16512 whole entry): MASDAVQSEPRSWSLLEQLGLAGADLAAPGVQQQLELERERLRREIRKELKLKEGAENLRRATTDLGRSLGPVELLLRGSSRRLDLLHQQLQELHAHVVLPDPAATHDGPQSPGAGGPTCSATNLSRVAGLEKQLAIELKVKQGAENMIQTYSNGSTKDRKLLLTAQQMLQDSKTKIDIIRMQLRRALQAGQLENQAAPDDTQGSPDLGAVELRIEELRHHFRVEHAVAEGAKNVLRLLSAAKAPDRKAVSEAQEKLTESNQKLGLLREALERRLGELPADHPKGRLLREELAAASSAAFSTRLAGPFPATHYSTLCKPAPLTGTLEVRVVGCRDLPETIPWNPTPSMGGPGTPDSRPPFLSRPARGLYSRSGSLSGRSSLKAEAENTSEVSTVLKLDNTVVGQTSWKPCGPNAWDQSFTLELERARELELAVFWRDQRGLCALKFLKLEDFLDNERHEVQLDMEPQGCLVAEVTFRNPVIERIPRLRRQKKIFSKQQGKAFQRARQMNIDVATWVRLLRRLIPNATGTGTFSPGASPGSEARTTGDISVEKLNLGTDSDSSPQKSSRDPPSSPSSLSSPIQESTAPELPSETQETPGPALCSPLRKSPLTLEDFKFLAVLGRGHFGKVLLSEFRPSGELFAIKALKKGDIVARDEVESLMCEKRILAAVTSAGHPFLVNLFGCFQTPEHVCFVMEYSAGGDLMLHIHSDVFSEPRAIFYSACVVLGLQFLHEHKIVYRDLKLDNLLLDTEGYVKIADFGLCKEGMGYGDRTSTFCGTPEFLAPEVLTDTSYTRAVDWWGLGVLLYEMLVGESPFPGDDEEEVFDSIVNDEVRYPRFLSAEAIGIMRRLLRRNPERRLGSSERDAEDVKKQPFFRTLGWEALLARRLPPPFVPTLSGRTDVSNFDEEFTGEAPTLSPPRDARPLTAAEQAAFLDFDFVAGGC

SMILES	Ki [1] [nM]	IC50 [2] [nM]	viability at 24 h, 50 µM [3] [%]	Ki [4] [nM]	IC50 [5] [nM]	IC50 [6] [nM]	IC50 [7] [nM]
O=C1NCCc2[nH]c(-c3ccncc3)cc21	150	300	≥ 70				
O=C1NCCc2c1cc(-c1ccncc1)n2CCO	220	440		15	30	11000	
c1cc(-c2cc3c([nH]2)CCNC3)ccn1		> 5000		1100	2200		
O=C1NCCc2[nH]c(-c3cccnc3)cc21		> 5000		1600	3200		
CC(C)n1c(-c2ccncc2)cc2c1CCNC2=O	920	1840		70	140		
O=C1NC(c2ccccc2)Cc2[nH]c(-c3ccncc3)cc21 (stereo not drawn)	260	520		25	50		
CCn1c(-c2ccncc2)cc2c1CCNC2=O	108	210	≥ 70	8	16	2100	1100
CCn1c(-c2ccncc2)cc2c1CCN(C)C2=O		> 5000		170	350		
O=C1NCCc2c1cc(-c1ccncc1)n2Cc1ccccc1	1500	3000		320	640		
Cn1c(-c2ccncc2)cc2c1CCNC2=O	2200	4500		130	260		
CCCN1CCc2c(cc(-c3ccncc3)n2CC)C1=O		> 5000		1300	2600		
O=C1CCCc2[nH]c(-c3ccncc3)cc21	650	1300		30	60		
CCCn1c(-c2ccncc2)cc2c1CCNC2=O	60	120	≥ 70	7	15	2800	
